Assay results reported in patent US20250296929A1, “NOVEL HEPATOSELECTIVE POLYADENYLATING POLYMERASES INHIBITORS AND THEIR METHOD OF USE” (BARUCH S. BLUMBERG INSTITUTE, priority 2021, published 2025).

Legend:
[1] = system: HBsAg secretion, HBV producing cell line HepG2.2.15; assay: Cellular assay: HBsAg inhibition in HBV producing cell line HepG2.2.15; assay type: cell-based; conditions: Hepatitis B virus
Description: (§1) Cellular assays method 1: Cellular assays: The HBV producing cell line HepG2.2.15 was cultured in DMEM/F12 containing 10% fetal bovine serum (FBS), 100 U/ml penicillin and 100 μg/ml streptomycin (Invitrogen). Compounds of the disclosure in DMSO was added into the culture medium when cell reached 100% confluence. The final concentration of DMSO was adjusted to 0.5%. Culture medium was replaced in two days and the cell was cultured for additional two days in the presence of compound. HBsAg inhibition in culture medium was then detected with AlphaLisa assay using anti-HBsAg antibodies of 10-H05H and 60C-CR2100RB from Fitzgerald Internantional. To examine the change of nucleic acid, total RNA was extracted with Trizol reagents and resolved in glyoxal agarose gel. HBV RNA blotted onto nitrocellulose membrane was measured with P32 labeled ribo-probe. Reduction and shortening of viral RNA indicates on target effect of the tested compound. […] HepG2.2.15 cells were first seeded in 96-well plate (Corning, Cat #: CLS3595) at density of 10,000 cells/well in 100 ul DMEM/F12 medium containing 10% FBS. When cells reached 100% confluence, treatment with compounds of the disclosure was initiated, and cells were cultured in the way as described for HBsAg inhibition study. Four days post drug treatment, 100 ul of CellTiter-Glo reagents (Promega, Cat #G7570) were added into each well and the mixture was incubated at 23° C. for 12 minutes, followed by the reading of luminescent signal in Tecan's Infinite 200 PRO. Compound IC50 on HBsAg and CC50 on cell viability were calculated using Graphpad prism. The IC50 and CC50 are defined as the compound concentration (or conditioned media log dilution) at which HBsAg secretion and cytotoxicity, respectively, are reduced by 50% compared to the no drug control.
(§2) Cellular assays method 2: HepG2.2.15 cells were seeded in duplicate into white, 96-well plates at 1.5×10^4 cells/well. The cells were treated with a 3-fold serial dilution series of the compounds in DMSO. The final DMSO concentration in all wells was 1%, and DMSO was used as no drug control. The HBsAg chemiluminescence immunoassay (CLIA) kit (Autobio Diagnostics Co., Zhengzhou, China) was used to measure the levels of secreted HBV antigens semi-quantitatively. For the detection, 50 μL/well culture supernatant was used and the procedure conducted as directed by manufacturer's instructions. The cytotoxicity was measured using CellTiter-Glo (Promega, Madison, WI, USA, catalogue no. G7571). Dose-response curves were generated and the IC50 and CC50 values were calculated using Graphpad prism. The IC50 and CC50 are defined as the compound concentration (or conditioned media log dilution) at which HBsAg secrection and cytotoxicity, respectively, are reduced by 50% compared to the no drug control.

[2] = Cellular toxicity (CellTiter-Glo) in HepG2.2.15 cells; assay type: cell-based; conditions: human
Description: as §1, §2

[3] = molecular target: T1, OATP1B3 (Homo sapiens, UniProt Q9NPD5); assay: OATP1B3 transporter substrate uptake in OATP1B3-HEK293 cells; assay type: in vitro ADME; conditions: test concentration 1 μM
T1 construct: expressed in transfected cells; host or cells: HEK293
T1 sequence (Q9NPD5 1-702): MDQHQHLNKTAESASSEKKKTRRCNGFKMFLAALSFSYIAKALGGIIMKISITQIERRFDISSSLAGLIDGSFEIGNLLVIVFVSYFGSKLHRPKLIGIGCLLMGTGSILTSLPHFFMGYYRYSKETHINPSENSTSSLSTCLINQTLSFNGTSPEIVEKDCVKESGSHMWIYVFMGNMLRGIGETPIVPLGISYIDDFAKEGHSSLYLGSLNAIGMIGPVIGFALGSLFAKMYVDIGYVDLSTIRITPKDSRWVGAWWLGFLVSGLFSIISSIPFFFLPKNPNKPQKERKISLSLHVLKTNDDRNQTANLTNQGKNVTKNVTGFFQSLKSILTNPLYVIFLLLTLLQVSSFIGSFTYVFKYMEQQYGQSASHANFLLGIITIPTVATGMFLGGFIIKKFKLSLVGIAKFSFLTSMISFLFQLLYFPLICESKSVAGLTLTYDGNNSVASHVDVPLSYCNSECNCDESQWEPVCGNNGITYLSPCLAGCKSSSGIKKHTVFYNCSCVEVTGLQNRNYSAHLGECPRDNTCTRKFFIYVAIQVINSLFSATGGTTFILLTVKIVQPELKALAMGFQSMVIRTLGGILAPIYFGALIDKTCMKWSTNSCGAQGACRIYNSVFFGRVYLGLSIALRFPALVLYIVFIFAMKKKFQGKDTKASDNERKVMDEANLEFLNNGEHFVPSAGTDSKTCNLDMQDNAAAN
Description: Protocol for identification of compounds that are substrates of transporters OATP1B1 and OATP1B3. Transfected HTEK293 and vector control HTEK293 cells were cultured in 24-well poly-D-lysine or collagen-coated tissue culture plates ([…]) for 2 and 10 minutes respectively in transport buffer (HIBSSg, pH 7.4, pre-warmed to 37° C.). At a defined time point, the uptake experiments were stopped by removing dosing solution followed by two washes of ice-cold HIBSSg buffer. The cells were lysed for 2 minutes with […] containing an appropriate internal standard (when available). Lysis buffer were chilled to −20° C., and the plate was kept on ice during lysis. The cell lysate was transferred into a 96-well plate for sample analysis with LC-MS/MS analysis to determine concentration of test compound in cell lysate. The uptake of test compounds was normalized by total cell protein using the BCA Protein Assay Kit following the manufacturer's protocol. The inhibitor Rifamycin SV was used to block OATP1B1 and OATP1B3 transporter activity in order to determine uptake ratios.

For `COc1cc2c(cc1OCCCCCCC(=O)O)C[C@@H](C(C)C)n1cc(C(=O)O)c(=O)cc1-2` [Example 6, (S)-9-((6-carboxyhexyl)oxy)-6-isopropyl-10-methoxy-2-oxo-6,7-dihydro-2H-pyrido[2,1-a]isoquinoline-3-carboxylic acid], the EC50 [1] was 23 nM, the CC50 [2] was > 10000 nM and the “Uptake Ratio (−/+Inhibitor)” value ([3]; OATP1B3-HEK293 cells, inhibitor Rifamycin SV) was 11.57. For the same compound, the “Uptake Ratio (Transporter(−Inhibitor)/Mock(−Inhibitor))” value ([3]; OATP1B3-HEK293 vs Mock) was 24.80.
